These results are taken from publication PMC5430920 (Scientific Reports, 2017).

Test [1] deals with T1, MtOPRT (Mycobacterium tuberculosis, UniProt P9WHK9).
T1 construct: gene pyrE

Test [2] deals with T1, MtOPRT. The source holds these as a separate data set.

T1 sequence (P9WHK9 whole entry): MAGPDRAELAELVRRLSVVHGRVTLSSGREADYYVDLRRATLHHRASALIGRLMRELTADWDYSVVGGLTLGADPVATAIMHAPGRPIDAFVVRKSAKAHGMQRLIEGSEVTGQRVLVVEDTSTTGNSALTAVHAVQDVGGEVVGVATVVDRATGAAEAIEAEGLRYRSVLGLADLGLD

As for `O=P(O)(O)OC[C@H]1O[C@H](OP(=O)(O)OP(=O)(O)O)[C@H](O)[C@@H]1O` [PRPP, α-D-5-phosphoribosyl-1-pyrophosphate], the “X-ray crystal structure, 2.25 Å” value in test [1] was “A PRPP molecule could be unambiguously identified in the active site in both monomers”.

With `O=P(O)(O)O` [Pi, inorganic phosphate], the “X-ray crystal structure, 1.90 Å” value in test [2] is listed as “the inorganic phosphate occupies the same binding pocket of the 5-phosphate group of PRPP”.
